Test results from PubChem BioAssay AID723 (NMMLSC, 2007).
Calls of active or inactive are those of the source. How the calls were made is not given here.

Molecular target: N-formyl peptide receptor 2 (Homo sapiens) (UniProt P25090)
Assay: human FPR2 ligand displacement potency – cell-based, flow cytometry, Ki from IC50, selectivity assay for FPR1 ligand SAR project, dose response (AID 723)
Settings: FPRL1-expressing cells, fluorescent ligand binding competition; for Ki: measured here: Ki from IC50

N-formyl peptide receptor 2 (Homo sapiens), sequence (P25090 whole entry, looked up): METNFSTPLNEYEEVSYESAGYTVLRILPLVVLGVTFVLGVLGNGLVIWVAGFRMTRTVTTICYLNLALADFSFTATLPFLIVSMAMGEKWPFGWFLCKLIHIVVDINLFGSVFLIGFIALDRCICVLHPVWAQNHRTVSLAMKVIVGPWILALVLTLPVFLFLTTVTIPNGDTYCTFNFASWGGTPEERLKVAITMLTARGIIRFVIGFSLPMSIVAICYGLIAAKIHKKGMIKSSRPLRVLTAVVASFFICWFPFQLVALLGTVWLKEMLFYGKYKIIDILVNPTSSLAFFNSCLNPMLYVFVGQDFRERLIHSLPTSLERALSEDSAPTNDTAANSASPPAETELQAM

CCCCCCOc1cccc(N2C(=O)C(=O)/C(=C(\O)c3ccccc3)C2c2cccc(F)c2)c1 (stereo not drawn)
IC50: > 66.7 µM (inactive)
Ki: > 40.3 µM

O=C(Oc1ccc2c(=O)c(-c3ccccc3Cl)c(C(F)(F)F)oc2c1)c1cccs1
Ki: > 40.3 µM

O=C1CC(c2ccccc2C(F)(F)F)C2=C(CC(c3cccs3)CC2=O)N1 (stereo not drawn)
Ki: > 40.3 µM

COc1ccc(-c2c(C)[nH]n3c(=O)c4c(nc23)CCCC4)cc1
Ki: > 40.3 µM

COc1ccc(C2C(C(=O)N3CCCC(C)C3)c3ccccc3C(=O)N2C)cc1 (stereo not drawn)
Ki: > 40.3 µM

Cc1cccc(C)c1NC(=O)C(NC(=O)Cc1cccs1)c1ccccc1 (stereo not drawn)
Ki: > 40.3 µM

O=C(O)C1CCCCC1C(=O)Nc1ccc(Br)cc1 (stereo not drawn)
Ki: > 40.3 µM

COc1ccc(C2/C(=C(\O)c3ccccc3)C(=O)C(=O)N2c2cccc(Cl)c2)c(OC)c1 (stereo not drawn)
IC50: > 66.7 µM (inactive)
Ki: > 40.3 µM

N#Cc1c(N/C(=C\C(=O)c2ccccc2)C(=O)O)sc2c1CCC2
IC50: > 66.7 µM (inactive)
Ki: > 40.3 µM

COc1ccc(-c2c(C(F)(F)F)oc3cc(OC(=O)c4ccco4)ccc3c2=O)cc1OC
Ki: > 40.3 µM

COCCN1C(=O)C(=O)/C(=C(/O)c2ccccc2)C1c1cc(OC)ccc1OC (stereo not drawn)
IC50: > 66.7 µM (inactive)
Ki: > 40.3 µM

COc1ccc(-c2c(C(F)(F)F)oc3cc(OC(=O)c4cccnc4)ccc3c2=O)cc1OC
Ki: > 40.3 µM

O=C(O)CCCN1C(=O)C(=O)/C(=C(/O)c2ccccc2)C1/C=C/c1ccccc1 (stereo not drawn)
IC50: > 66.7 µM (inactive)
Ki: > 40.3 µM

COc1ccc(C2C(C(=O)c3cc4ccccc4o3)=C(O)C(=O)N2CCN(C)C)cc1OC (stereo not drawn)
IC50: > 66.7 µM (inactive)
Ki: > 40.3 µM

O=C(C1=C(O)C(=O)N(CCc2ccccc2)C1c1ccc(Cl)cc1)c1cccs1 (stereo not drawn)
IC50: > 66.7 µM (inactive)
Ki: > 40.3 µM

O=C(C1=C(O)C(=O)N(CCCN2CCOCC2)C1c1cccnc1)c1cc2ccccc2o1 (stereo not drawn)
IC50: > 66.7 µM (inactive)
Ki: > 40.3 µM

COc1ccc(OC)c(CNC(=O)Cn2c(=O)sc3ccccc32)c1
Ki: > 40.3 µM

CCCCCCN1C(=O)C(=O)/C(=C(\O)c2ccccc2)C1c1ccc(O)c(OC)c1 (stereo not drawn)
IC50: > 66.7 µM (inactive)
Ki: > 40.3 µM

COc1ccc(C2C(C(=O)c3ccco3)=C(O)C(=O)N2CCN2CCOCC2)c(OC)c1 (stereo not drawn)
IC50: > 66.7 µM (inactive)
Ki: > 40.3 µM

CC(C)c1ccc(C2/C(=C(\O)c3ccccc3)C(=O)C(=O)N2Cc2cccnc2)cc1 (stereo not drawn)
IC50: > 66.7 µM (inactive)
Ki: > 40.3 µM

COc1ccc(C2C(C(=O)c3cccs3)=C(O)C(=O)N2CCN2CCOCC2)c(OC)c1 (stereo not drawn)
IC50: > 66.7 µM (inactive)
Ki: > 40.3 µM

COc1ccc(OC)c(C2/C(=C(\O)c3ccccc3)C(=O)C(=O)N2c2cccnc2)c1 (stereo not drawn)
IC50: > 66.7 µM (inactive)
Ki: > 40.3 µM

CCC(C)(C(=O)NC1CCCCC1)N(Cc1cccs1)C(C)=O (stereo not drawn)
Ki: > 40.3 µM

Cc1ccc(/C(O)=C2\C(=O)C(=O)N(c3nnc(C)s3)C2c2ccc(C(C)C)cc2)cc1 (stereo not drawn)
IC50: > 66.7 µM (inactive)
Ki: > 40.3 µM

Cc1ccc(/C(O)=C2\C(=O)C(=O)N(Cc3cccnc3)C2c2ccc(Br)cc2)cc1 (stereo not drawn)
IC50: > 66.7 µM (inactive)
Ki: > 40.3 µM

COc1ccc(C2/C(=C(\O)c3ccccc3)C(=O)C(=O)N2CCCn2ccnc2)c(OC)c1 (stereo not drawn)
IC50: > 66.7 µM (inactive)
Ki: > 40.3 µM

COc1ccc(/C(O)=C2/C(=O)C(=O)NC2c2ccc(OC)cc2OC)cc1 (stereo not drawn)
IC50: > 66.7 µM (inactive)
Ki: > 40.3 µM

COCCCN1C(=O)C(=O)/C(=C(/O)c2ccccc2)C1c1ccc(O)c(OC)c1 (stereo not drawn)
IC50: > 66.7 µM (inactive)
Ki: > 40.3 µM

COc1ccc(OC)c(C2/C(=C(\O)c3ccccc3)C(=O)C(=O)N2c2ccc(C)c(Cl)c2)c1 (stereo not drawn)
IC50: > 66.7 µM (inactive)
Ki: > 40.3 µM

COCCN1C(=O)C(=O)/C(=C(/O)c2ccccc2)C1c1ccc(C(C)C)cc1 (stereo not drawn)
IC50: > 66.7 µM (inactive)
Ki: > 40.3 µM

COc1cc(C2C(C(C)=O)=C(O)C(=O)N2c2ccc(Br)cc2)ccc1O (stereo not drawn)
IC50: > 66.7 µM (inactive)
Ki: > 40.3 µM

COCCCN1C(=O)C(=O)/C(=C(/O)c2ccccc2)C1c1ccc(C(C)C)cc1 (stereo not drawn)
IC50: > 66.7 µM (inactive)
Ki: > 40.3 µM

O=C1NC(c2ccc(Br)cc2)/C(=C(\O)c2ccc(Cl)cc2)C1=O (stereo not drawn)
IC50: > 66.7 µM (inactive)
Ki: > 40.3 µM

CC(C)C(=O)N(Cc1ccco1)S(=O)(=O)c1cccc2cccnc12
Ki: > 40.3 µM

COc1cccc(-c2ccnc3[nH]n(-c4ccccc4)c(=O)c23)c1
Ki: > 40.3 µM

O=C1C(=O)N(c2ccc(F)cc2)C(c2ccc(Br)cc2)/C1=C(/O)c1ccccc1 (stereo not drawn)
IC50: > 66.7 µM (inactive)
Ki: > 40.3 µM

CC(=O)C1=C(O)C(=O)N(CCc2c(C)[nH]c3ccccc23)C1c1cccc(F)c1 (stereo not drawn)
IC50: > 66.7 µM (inactive)
Ki: > 40.3 µM

COc1ccc(C2C(C(=O)c3ccco3)=C(O)C(=O)N2CCCN2CCOCC2)cc1OC (stereo not drawn)
IC50: > 66.7 µM (inactive)
Ki: > 40.3 µM

COc1ccc(/C(O)=C2/C(=O)C(=O)N(CCc3c[nH]c4ccccc34)C2c2ccc(C(C)C)cc2)cc1 (stereo not drawn)
IC50: > 66.7 µM (inactive)
Ki: > 40.3 µM

CCc1cc2c(=O)c(-c3nc4ccccc4n3C)c(C)oc2cc1OC(C)=O
Ki: > 40.3 µM

O=C(C1=C(O)C(=O)N(CCCn2ccnc2)C1c1cccnc1)c1cc2ccccc2o1 (stereo not drawn)
IC50: > 66.7 µM (inactive)
Ki: > 40.3 µM

COCCN1C(=O)C(=O)/C(=C(/O)c2ccccc2)C1c1ccccc1OC (stereo not drawn)
IC50: > 66.7 µM (inactive)
Ki: > 40.3 µM

O=C1C(=O)N(CN2CCOCC2)C(c2ccc(Br)cc2)/C1=C(\O)c1ccccc1 (stereo not drawn)
IC50: > 66.7 µM (inactive)
Ki: > 40.3 µM

COc1ccc(OC)c(C2/C(=C(\O)c3ccc(C)cc3)C(=O)C(=O)N2CCC(=O)O)c1 (stereo not drawn)
IC50: > 66.7 µM (inactive)
Ki: > 40.3 µM

COc1ccc(C2/C(=C(\O)c3ccc(C)cc3)C(=O)C(=O)N2Cc2cccnc2)c(OC)c1 (stereo not drawn)
IC50: > 66.7 µM (inactive)
Ki: > 40.3 µM

Cc1nc2c(-c3ccc(Cl)cc3)c(C(F)(F)F)[nH]n2c(=O)c1Cc1ccccc1
Ki: > 40.3 µM

O=C(C1=C(O)C(=O)N(CCCn2ccnc2)C1c1cccnc1)c1ccco1 (stereo not drawn)
IC50: > 66.7 µM (inactive)
Ki: > 40.3 µM

COc1ccccc1-c1c(C(F)(F)F)oc2cc(OC(=O)c3ccco3)ccc2c1=O
Ki: > 40.3 µM

CCCC(=O)N(Cc1ccco1)S(=O)(=O)c1cccc2cccnc12
Ki: > 40.3 µM

Cc1ccc(N2C(=O)C(=O)/C(=C(\O)c3ccccc3)C2c2cccc(F)c2)cc1Br (stereo not drawn)
IC50: > 66.7 µM (inactive)
Ki: > 40.3 µM

COc1ccc(C2C(C(=O)c3cccs3)=C(O)C(=O)N2CCCn2ccnc2)cc1 (stereo not drawn)
IC50: > 66.7 µM (inactive)
Ki: > 40.3 µM

COc1cccc(/C=C2/C(=O)NN(c3ccc(C)cc3)C2=O)c1
Ki: > 40.3 µM

O=C(Oc1ccc2c(=O)c(Oc3ccccc3Br)c(C(F)(F)F)oc2c1)c1cccs1
Ki: > 40.3 µM

Cc1sc2c(c1C)c(=O)n(Cc1ccccc1)c(=O)n2Cc1ccccc1F
Ki: > 40.3 µM

COc1cc(C2C(C(=O)c3cc4ccccc4o3)=C(O)C(=O)N2CCN(C)C)ccc1O (stereo not drawn)
IC50: > 66.7 µM (inactive)
Ki: > 40.3 µM

COc1ccc(-c2c(C(F)(F)F)oc3c(CN4CCOCC4)c(O)ccc3c2=O)cc1OC
Ki: > 40.3 µM

Cc1cccc(C2CC(=O)NC3=C2C(=O)CC(c2cccs2)C3)c1 (stereo not drawn)
Ki: > 40.3 µM
